We go through two compounds from paper PMC8242077, “Allosteric drug transport mechanism of multidrug transporter AcrB” (Nature Communications, 2021).

In the test the target is T1, AcrB (Escherichia coli, UniProt P31224).
T1 construct: full-length, His-tagged (pET24acrBHis), from E. coli C43(DE3) delta-acrAB; homotrimer, DDM-solubilised; crystallised with DARPins
The experiment in a line: X-ray co-crystal structure. It is filed as binding. Conditions: DARPin chaperone.

T1 sequence (P31224 whole entry): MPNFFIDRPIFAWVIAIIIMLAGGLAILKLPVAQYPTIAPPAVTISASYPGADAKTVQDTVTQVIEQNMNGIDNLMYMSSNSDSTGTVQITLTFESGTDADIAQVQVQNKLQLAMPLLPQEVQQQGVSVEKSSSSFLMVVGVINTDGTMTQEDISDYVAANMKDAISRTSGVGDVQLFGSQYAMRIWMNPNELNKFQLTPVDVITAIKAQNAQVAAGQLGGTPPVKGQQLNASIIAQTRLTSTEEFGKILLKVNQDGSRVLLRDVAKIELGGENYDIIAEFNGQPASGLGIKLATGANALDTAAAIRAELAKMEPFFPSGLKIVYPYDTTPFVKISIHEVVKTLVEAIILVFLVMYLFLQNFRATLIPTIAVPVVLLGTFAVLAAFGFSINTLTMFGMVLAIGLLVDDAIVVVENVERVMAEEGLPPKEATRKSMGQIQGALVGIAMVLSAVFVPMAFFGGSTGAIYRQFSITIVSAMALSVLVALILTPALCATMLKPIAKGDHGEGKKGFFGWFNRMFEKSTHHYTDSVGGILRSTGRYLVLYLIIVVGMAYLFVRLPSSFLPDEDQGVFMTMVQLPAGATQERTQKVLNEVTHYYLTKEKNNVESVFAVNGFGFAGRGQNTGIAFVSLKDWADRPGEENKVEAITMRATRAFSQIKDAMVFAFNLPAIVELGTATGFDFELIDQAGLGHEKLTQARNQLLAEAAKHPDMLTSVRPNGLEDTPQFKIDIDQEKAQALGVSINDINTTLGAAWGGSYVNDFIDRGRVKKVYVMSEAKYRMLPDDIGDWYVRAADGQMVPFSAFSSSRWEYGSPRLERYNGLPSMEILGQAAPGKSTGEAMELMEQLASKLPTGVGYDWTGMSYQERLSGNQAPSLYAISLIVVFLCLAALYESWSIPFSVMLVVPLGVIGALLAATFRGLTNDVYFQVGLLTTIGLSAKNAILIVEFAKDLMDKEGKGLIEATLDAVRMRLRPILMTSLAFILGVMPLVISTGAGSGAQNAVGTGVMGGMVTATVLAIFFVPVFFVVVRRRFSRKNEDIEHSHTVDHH

In the case of `CO[C@H]1/C=C/O[C@@]2(C)Oc3c(C)c(O)c4c(O)c(c(C=O)c(O)c4c3C2=O)NC(=O)/C(C)=C\C=C\[C@H](C)[C@H](O)[C@@H](C)[C@@H](O)[C@@H](C)[C@H](OC(C)=O)[C@@H]1C` [3-formylrifamycin SV], the X-ray co-crystal structure result (access pocket of L protomer, crystallised with 3 mM rifampicin) is on record as “co-crystal AcrB/3-formylrifamycin SV (3-FOR) structure”.
In the case of `CC(=O)O[C@H]1C[C@@]2(C)[C@@H](C[C@@H](O)[C@H]3[C@@]4(C)CC[C@@H](O)[C@@H](C)[C@@H]4CC[C@@]32C)/C1=C(\CCC=C(C)C)C(=O)O` [fusidic acid], the X-ray co-crystal structure result (T protomer: TMD-BP, TM1/TM2 groove and TM7/TM8 groove, co-crystallised with 1 mM each fusidic acid, erythromycin, linezolid, oxacillin) is “co-structure with FUA bound to a deep concave crevice surrounded by TM2, TM4, TM10-12”.
